For 12 compounds, IC50 and melting point results are on record in US6339093B1, “Isoquinoline derivatives” (Hoffmann-la Roche Inc., priority 1999, dated 2002).

Where a name gives a salt, the structure may show the parent alone.

For one series, the target named is T1, NMDA receptor (Rattus norvegicus, UniProt P35439+Q00960).
T1 construct: Membranes were prepared by homogenization of the whole brain minus cerebellum and medulla oblongata; from tissue; host or cells: rat whole brain minus cerebellum and medulla oblongata, membranes
The series can be described thus: 3H-[R-(R*,S*)]-a-(4-Hydroxy-phenyl)-b-methyl-4-(phenyl-methyl)-1-piperidine propanol binding (displacement, rat brain membranes). Particulars: displacement of 5 nM 3H-radioligand, rat whole brain membranes minus cerebellum and medulla oblongata, 2 hours at 4° C. The method, then: ^3H-[R-(R*,S*)]-a-(4-Hydroxy-phenyl)-b-methyl-4-(phenyl-methyl)-1-piperidine propanol binding
Male Füllinsdorf albino rats weighing between 150-200 g were used. Membranes were prepared by homogenization of the whole brain minus cerebellum and medulla oblongata with a Polytron (10.000 rpm, 30 seconds), in 25 volume of a cold Tris-HCl 50 mM, EDTA 10 mM, pH 7.1 buffer. The homogenate was centrifuged at 48,000 g for 10 minutes at 4° C. The pellet was resuspended using the Polytron in the same volume of buffer and the homogenate was incubated at 37° C. for 10 minutes. After centrifugation the pellet was homogenized in the same buffer and frozen at −80° C. for at least 16 hours but not more than 10 days. For the binding assay the homogenate was thawed at 37° C., centrifuged and the pellet was washed three times as above in a Tris-HCl 5 mM, pH 7.5 cold buffer. The final pellet was resuspended in the same buffer and used at a final concentration of […] of protein/ml.
[R-(R*,S*)]-α-(4-Hydroxy-phenyl)-β-methyl-4-(phenyl-methyl)-1-piperidine propanol is a compound known to bind selectively to the NMDA receptor (J. Neurochem., Vol. 70., No. 5, 1998). ^3H-[R-(R*,S*)]-α-(4-Hydroxy-phenyl)-β-methyl-4-(phenyl-methyl)-1-piperidine propanol binding experiments were performed using a Tris-HCl 50 mM, pH 7.4 buffer. For displacement experiments 5 nM of 3H-[R-(R*,S*)]-a-(4-Hydroxy-phenyl)-b-methyl-4-(phenyl-methyl)-1-piperidine propanol were used and non specific binding was measured using 10 mM of tetrahydroisoquinoline and usually it accounts for 10% of the total. The incubation time was 2 hours at 4° C. and the assay was stopped by filtration on Whatmann GF/B glass fiber filters (Unifilter-96, Packard, Zürich, Switzerland). The filters were washed 5 times with cold buffer. The radioactivity on the filter was counted on a Packard Top-count microplate scintillation counter after addition of […] of microscint 40 (Canberra Packard S.A., Zürich, Switzerland).
The effects of compounds were measured using a minimum of 8 concentrations and repeated at least once. The pooled normalized values were analyzed using a non-linear regression calculation program which provide IC50 with their relative upper and lower 95% confidence limits.

Broadly, the IC50 is the concentration at which inhibition is half-maximal. A lower IC50 goes with inhibition by little substance. For orientation: melting point means the temperature of the solid-liquid transition.

T1 sequence (Q00960 27-1482, other chains not shown): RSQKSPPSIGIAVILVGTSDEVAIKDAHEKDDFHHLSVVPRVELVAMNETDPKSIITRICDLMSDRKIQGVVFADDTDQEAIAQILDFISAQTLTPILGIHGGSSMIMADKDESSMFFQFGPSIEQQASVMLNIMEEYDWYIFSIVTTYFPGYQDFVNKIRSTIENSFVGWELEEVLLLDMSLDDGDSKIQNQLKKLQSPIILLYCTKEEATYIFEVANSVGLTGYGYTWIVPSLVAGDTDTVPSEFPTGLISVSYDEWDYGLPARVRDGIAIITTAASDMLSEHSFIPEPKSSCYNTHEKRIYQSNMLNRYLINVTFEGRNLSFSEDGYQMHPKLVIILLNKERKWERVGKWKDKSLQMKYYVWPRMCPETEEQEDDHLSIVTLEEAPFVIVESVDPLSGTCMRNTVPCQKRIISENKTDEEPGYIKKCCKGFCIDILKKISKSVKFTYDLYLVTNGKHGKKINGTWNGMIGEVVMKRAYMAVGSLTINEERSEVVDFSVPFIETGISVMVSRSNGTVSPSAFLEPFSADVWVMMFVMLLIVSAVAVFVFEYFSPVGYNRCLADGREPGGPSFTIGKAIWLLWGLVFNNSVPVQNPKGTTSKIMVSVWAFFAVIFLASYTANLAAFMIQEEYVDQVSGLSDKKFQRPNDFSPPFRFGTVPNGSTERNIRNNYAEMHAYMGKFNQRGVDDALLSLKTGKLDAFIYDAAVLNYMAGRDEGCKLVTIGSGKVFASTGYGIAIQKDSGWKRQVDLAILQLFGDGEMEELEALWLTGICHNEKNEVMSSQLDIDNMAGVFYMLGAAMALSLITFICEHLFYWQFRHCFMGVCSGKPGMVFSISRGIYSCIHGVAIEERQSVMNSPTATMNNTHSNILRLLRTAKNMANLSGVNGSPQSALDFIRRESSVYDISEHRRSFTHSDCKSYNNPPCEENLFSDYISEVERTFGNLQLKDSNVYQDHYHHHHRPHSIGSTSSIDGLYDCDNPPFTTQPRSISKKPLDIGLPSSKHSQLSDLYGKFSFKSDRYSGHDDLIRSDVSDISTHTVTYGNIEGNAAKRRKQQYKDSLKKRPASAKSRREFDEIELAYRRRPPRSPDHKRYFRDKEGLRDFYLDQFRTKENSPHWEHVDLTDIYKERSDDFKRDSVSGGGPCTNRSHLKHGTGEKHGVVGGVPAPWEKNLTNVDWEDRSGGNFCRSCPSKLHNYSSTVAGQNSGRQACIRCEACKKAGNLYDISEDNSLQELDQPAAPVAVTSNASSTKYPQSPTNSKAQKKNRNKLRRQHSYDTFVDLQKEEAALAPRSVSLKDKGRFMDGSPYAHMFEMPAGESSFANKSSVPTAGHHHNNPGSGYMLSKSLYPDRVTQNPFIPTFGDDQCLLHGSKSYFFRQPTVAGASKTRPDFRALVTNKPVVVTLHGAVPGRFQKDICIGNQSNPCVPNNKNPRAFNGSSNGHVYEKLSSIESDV

As to `OC[C@H]1CCCN1c1cc(N2CCc3ccccc3C2)c2ccccc2n1` [Example 5, (R)-{1-[4-(3,4-Dihydro-1H-isoquinolin-2-yl)-quinolin-2-yl]-pyrrolidin-2-yl}-methanol], the melting point lay in the range of 74 to 80 °C. For the same compound, on NMDA receptor, the IC50 was 290 nM.
The compound `Cl.c1ccc2c(c1)CN(c1ccnc3ccccc13)C2` gave a melting point of 264 to 267 °C.
The compound `Cl.O[C@@H]1CCN(c2cc(N3CCc4ccccc4C3)c3ccccc3n2)C1` [Example 4, (R)-1-[4-(3,4-Dihydro-1H-isoquinolin-2-yl)-quinolin-2-yl]-pyrrolidin-3-ol hydrochloride] had a melting point of 270 to 274 °C. This compound also came in with an IC50 on NMDA receptor of 170 nM.
At NMDA receptor, `OCCNc1cc(N2CCc3ccccc3C2)c2ccccc2n1` [Example 2, 2-[4-(3,4-Dihydro-1H-isoquinolin-2-yl)-quinolin-2-ylamino]-ethanol hydrochloride] showed an IC50 of 58 nM.
Compound `Cc1ccc2c(N3CCc4ccccc4C3)ccnc2c1.Cl` [Example 13, 4-(3,4-Dihydro-1H-isoquinolin-2-yl)-7-methyl-quinoline hydrochloride] came in with a melting point of 251 to 252 °C. Also, on NMDA receptor, the IC50 amounted to 190 nM.
`Cl.c1ccc2c(c1)CCN(c1ccnc3ccccc13)C2` yielded a melting point of 200 °C.
On the same count and under the same terms, for `Cl.Clc1ccc2c(c1)CN(c1ccnc3ccccc13)C2` the value was 270 to 275 °C.
On NMDA receptor, `Fc1ccc2nccc(N3CCc4ccccc4C3)c2c1` [Example 18, 4-(3,4-Dihydro-1H-isoquinolin-2-yl)-6-fluoro-quinoline hydrochloride] showed an IC50 of 890 nM.
`Cc1cc(N2CCc3ccccc3C2)c2ccccc2n1.Cl` registered a melting point of 210 to 211 °C.
For `Fc1cccc2c(N3CCc4ccccc4C3)ccnc12` [Example 16, 4-(3,4-Dihydro-1H-isoquinolin-2-yl)-8-fluoro-quinoline hydrochloride], the IC50 at NMDA receptor was determined as 650 nM.
Take `COc1cccc2c(N3CCc4ccccc4C3)ccnc12.Cl`: the melting point came to 240 °C.
On to `Clc1ccc2c(N3CCc4ccccc4C3)ccnc2c1` [Example 15, 7-Chloro-4-(3,4-dihydro-1H-isoquinolin-2-yl)-quinoline hydrochloride], for which the IC50 on NMDA receptor turned out to be 320 nM. This counts as sub-micromolar.
